Data on one compound can be found in patent EP4711369A1, “1H-[1,2,3]TRIAZOLO[4,5-H]QUINAZOLINE COMPOUNDS AS PROTEIN KINASE INHIBITORS” (Chengdu Cynogen Bio-Pharmaceutical Technology Co., Ltd., priority 2023, dated 2024).

The subject of test [1] is Human ovarian cancer OVCAR3 cells. In words: Assay of cell proliferation (CellTiter-Glo). The class given is cell-based. As to conditions: Homo sapiens, OVCAR-3, 144 h, 6 days, read-out: OVCAR3 IC50 of cell proliferation inhibitory activity. The method in brief: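 OVCAR3 cells, 2000/well in RPMI 1640 with 20% FBS, treated with nine 3-fold dilutions from 10 µM to 0.1 nM (0.5% DMSO) for 6 days at 37 °C. Viability by CellTiter-Glo luminescence; IC50 by four-parameter fit.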

For test [2], the system named is Human ovarian cancer OVCAR-3 cells. In words: OVCAR-3 tumor model. The class given is in vivo. The following applies: female NOD-SCID mice, p.o. 5, 10 and 15 mg/kg twice daily, 22 days, Fig. 3. How it is done:
Human ovarian cancer OVCAR-3 cells were cultured in RPMI 1640 medium containing 20% FBS at 37 °C and 5% CO2 in an incubator. Matrigel was mixed with serum-free RPMI 1640 medium at a ratio of 1:1, and then the mixture was used to resuspend the OVCAR-3 cancer cells at 2 × 10^7 cells/0.2 ml. Then, the cells were inoculated subcutaneously into the right rib area of female NOD-SCID mice. When the volume of tumors reached approximately 100-150 mm^3, the mice were randomly divided into groups for treatment, with six animals per group. The compound of example I-10 was prepared in a 20% aqueous solution of hydroxypropyl-gamma-cyclodextrin containing an equivalent amount of hydrochloric acid, and administered by oral gavage (p.o.) at dosages of 5, 10, and 15 (mg/kg) twice daily, 8 hours apart, for a total of 22 days. The PF06873600 treatment group was used as a positive control, and the untreated group was given solvent by oral gavage. The tumor volume was measured twice a week using a vernier caliper by measuring the long and short diameters of a tumor. The formula for calculating a tumor volume was: volume (mm^3) = (long diameter (mm) × short diameter (mm) × short diameter (mm)/2. The mice were weighed daily.
The therapeutic effect of a drug was evaluated using the tumor growth inhibition (TGI%).

In a further test the target is CDK2/cyclin E (Homo sapiens, UniProt P24941). In words: Assay of kinase activity (ADP-Glo). The class given is biochemical. The following applies: kinase inhibitory activity, read-out: CDK2/E1 IC50. In outline:
(§1)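 Kinase preincubated 10 min with compound in 50 mM Hepes, 10 mM MgCl2, 0.01% Brij35, 2 mM DTT, then substrate/ATP added for 60 min at 25 °C. ADP formed measured by ADP-Glo luminescence; IC50 by nonlinear concentration-response fitting.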
In general terms: ADP-Glo turns the ADP formed in a reaction into a luminescent signal.

The target of the next test is CDK4/cyclin D1 (Homo sapiens, UniProt P11802). In words: Assay of kinase activity (ADP-Glo). As to conditions: kinase inhibitory activity. The class given is biochemical. The method in brief:
as §1

CDK4/cyclin D1, sequence (P11802 whole entry, species assumed): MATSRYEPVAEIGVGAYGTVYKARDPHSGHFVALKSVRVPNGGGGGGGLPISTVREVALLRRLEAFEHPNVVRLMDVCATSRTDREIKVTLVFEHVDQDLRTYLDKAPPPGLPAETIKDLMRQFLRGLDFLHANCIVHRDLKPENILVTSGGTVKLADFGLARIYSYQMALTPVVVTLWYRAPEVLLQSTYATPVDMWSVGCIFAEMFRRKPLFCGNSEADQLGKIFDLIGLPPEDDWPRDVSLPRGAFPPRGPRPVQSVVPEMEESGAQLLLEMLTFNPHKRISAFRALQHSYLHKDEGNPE
CDK4/cyclin D1, sequence (P24385 whole entry partner, species assumed): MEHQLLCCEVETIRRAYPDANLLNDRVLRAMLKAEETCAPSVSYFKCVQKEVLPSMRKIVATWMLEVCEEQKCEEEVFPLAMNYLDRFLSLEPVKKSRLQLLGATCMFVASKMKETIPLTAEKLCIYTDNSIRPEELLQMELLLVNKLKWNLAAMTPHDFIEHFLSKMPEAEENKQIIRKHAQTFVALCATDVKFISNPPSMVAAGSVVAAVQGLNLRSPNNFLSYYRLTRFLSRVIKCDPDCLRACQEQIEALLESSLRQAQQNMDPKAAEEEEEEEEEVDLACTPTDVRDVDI

Turning to `CC(C)n1nnc2ccc3cnc(Nc4ccc(C(=O)N5CC[C@H](N(C)C)C5)cc4)nc3c21` [Example I-10, (S)-(3-(Dimethylamino)pyrrolidin-1-yl)(4-((1-isopropyl-1H-[1,2,3]triazolo[4,5-H]quinazolin-8-yl)amino)phenyl)metha none], the IC50 in test [1] was 16 nM; on CDK2/cyclin E, 0.1 nM; against CDK4/cyclin D1 it was 0.6 nM. Besides, the “growth inhibitory effect on the OVCAR-3 tumor model (TGI%)” value in test [2] is on record as “dose-dependent relationship”.
